The numbers were not newly measured in publication PMC9604775, “Bioactive Peptides from Skipjack Tuna Cardiac Arterial Bulbs: Preparation, Identification, Antioxidant Activity, and Stability against Thermal, pH, and Simulated Gastrointestinal Digestion Treatments” (Marine Drugs, 2022), which cites them from elsewhere.

Common to all, as to conditions: literature value; cited from earlier work
Details of series [1]: method as in 10 sources, ref 24 = [24]; PMID 35127795; doi:10.3389/fnut.2021.813780; 24. Wang J. Wang Y.M. Li L.Y. Chi C.F. Wang B. Twelve antioxidant peptides from protein hydrolysate of Skipjack tuna ( Katsuwonus pelamis ) roe prepared by flavourzyme: Purification, sequence identifi ||| ref 55 = [55]; doi:10.1016/j.jff.2016.06.008; 55. Pan X. Zhao Y.Q. Hu F.Y. Wang B. Preparation and identification of antioxidant peptides from protein hydrolysate of skate (Raja porosa) cartilage J. Funct. Foods 2016 25 220 230 10.1016/j.jff.2016 ||| ref 48 = [48]; PMID 31035632; doi:10.3390/md17050251; 48. Yang X.R. Qiu Y.T. Zhao Y.Q. Chi C.F. Wang B. Purification and characterization of antioxidant peptides derived from protein hydrolysate of the marine bivalve mollusk Tergillarca granosa Mar Drugs ||| ref 15 = [15]; doi:10.1016/j.jff.2018.06.014; 15. Zhao W.H. Luo Q.B. Pan X. Chi C.F. Sun K.L. Wang B. Preparation, identification, and activity evaluation of ten antioxidant peptides from protein hydrolysate of swim bladders of miiuy croaker ( Mi ||| ref 47 = [47]; PMID 35531284; doi:10.3389/fmicb.2022.791248; 47. Sun K. Gao M. Wang Y.Z. Li X.R. Wang P. Wang B. Antioxidant peptides from protein hydrolysate of marine red algae Eucheuma cottonii : Preparation, identification, and cytoprotective mechanisms on ||| ...

Details of series [2]: method as in 10 sources, ref 51 = [51]; doi:10.1016/j.jff.2015.04.042; 51. Cai L. Wu X. Zhang Y. Li X. Ma S. Li J. Purification and characterization of three antioxidant peptides from protein hydrolysate of grass carp ( Ctenopharyngodon idella ) skin J. Funct. Foods 2015 ||| ref 42 = [42]; PMID 35621976; doi:10.3390/md20050325; 42. Sheng Y. Qiu Y.T. Wang Y.M. Chi C.F. Wang B. Novel antioxidant collagen peptides of Siberian sturgeon ( Acipenser baerii ) cartilages: The preparation, characterization, and cytoprotection of H 2 ||| ref 24 = [24]; PMID 35127795; doi:10.3389/fnut.2021.813780; 24. Wang J. Wang Y.M. Li L.Y. Chi C.F. Wang B. Twelve antioxidant peptides from protein hydrolysate of Skipjack tuna ( Katsuwonus pelamis ) roe prepared by flavourzyme: Purification, sequence identifi ||| ref 48 = [48]; PMID 31035632; doi:10.3390/md17050251; 48. Yang X.R. Qiu Y.T. Zhao Y.Q. Chi C.F. Wang B. Purification and characterization of antioxidant peptides derived from protein hydrolysate of the marine bivalve mollusk Tergillarca granosa Mar Drugs ||| ref 43 = [43]; doi:10.1016/j.foodres.2010.02.009; 43. You L. Zhao M. Regenstein J.M. Ren J. Purification and identification of antioxidant peptides from loach ( Misgurnus anguillicaudatus ) protein hydrolysate by consecutive chromatography and electr ||| ...

Details of series [3]: method as in 10 sources, ref 24 = [24]; PMID 35127795; doi:10.3389/fnut.2021.813780; 24. Wang J. Wang Y.M. Li L.Y. Chi C.F. Wang B. Twelve antioxidant peptides from protein hydrolysate of Skipjack tuna ( Katsuwonus pelamis ) roe prepared by flavourzyme: Purification, sequence identifi ||| ref 43 = [43]; doi:10.1016/j.foodres.2010.02.009; 43. You L. Zhao M. Regenstein J.M. Ren J. Purification and identification of antioxidant peptides from loach ( Misgurnus anguillicaudatus ) protein hydrolysate by consecutive chromatography and electr ||| ref 44 = [44]; doi:10.1016/j.jff.2015.03.045; 44. Chi C.F. Hu F.Y. Wang B. Li T. Ding G.F. Antioxidant and anticancer peptides from protein hydrolysate of blood clam ( Tegillarca granosa ) muscle J. Funct. Foods 2015 15 301 313 10.1016/j.jff.2015 ||| ref 42 = [42]; PMID 35621976; doi:10.3390/md20050325; 42. Sheng Y. Qiu Y.T. Wang Y.M. Chi C.F. Wang B. Novel antioxidant collagen peptides of Siberian sturgeon ( Acipenser baerii ) cartilages: The preparation, characterization, and cytoprotection of H 2 ||| ref 45 = [45]; PMID 23411302; doi:10.1016/j.foodchem.2012.12.002; 45. Wang B. Li L. Chi C.F. Ma J.H. Luo H.Y. Xu Y.F. Purification and Characterization of a novel antioxidant peptide derived from blue mussel ( Mytilus edulis ) protein hydrolysate Food Chem. 2013 138 ||| ...

On the set-up of series [4]: method as in 5 sources, ref 41 = [41]; doi:10.1016/j.procbio.2022.01.008; 41. Wang Y.M. Li X.Y. Wang J. He Y. Chi C.F. Wang B. Antioxidant peptides from protein hydrolysate of skipjack tuna milt: Purification, identification, and cytoprotection on H 2 O 2 damaged human umbi ||| ref 44 = [44]; doi:10.1016/j.jff.2015.03.045; 44. Chi C.F. Hu F.Y. Wang B. Li T. Ding G.F. Antioxidant and anticancer peptides from protein hydrolysate of blood clam ( Tegillarca granosa ) muscle J. Funct. Foods 2015 15 301 313 10.1016/j.jff.2015 ||| ref 20 = [20]; doi:10.1016/j.jff.2014.10.027; 20. Chi C.F. Wang B. Wang Y.M. Zhang B. Deng S.G. Isolation and characterization of three antioxidant peptides from protein hydrolysate of bluefin leatherjacket ( Navodon septentrionalis ) heads J. Fu ||| ref 48 = [48]; PMID 31035632; doi:10.3390/md17050251; 48. Yang X.R. Qiu Y.T. Zhao Y.Q. Chi C.F. Wang B. Purification and characterization of antioxidant peptides derived from protein hydrolysate of the marine bivalve mollusk Tergillarca granosa Mar Drugs ||| ref 39 = [39]; PMID 31430875; doi:10.3390/antiox8080318; 39. Zhang L. Zhao G.X. Zhao Y.Q. Qiu Y.T. Chi C.F. Wang B. Identification and active evaluation of antioxidant peptides from protein hydrolysates of skipjack tuna ( Katsuwonus pelamis ) head Antioxida.

Take “FIMGPY [literature antioxidant peptide from skate cartilages]”: in series [1], the “EC50 O2^−·” value is 1610 µg/mL.

Consider “VGGRP [literature antioxidant peptide from grass carp skin]”, for which the “EC50 HO·” value in series [2] is 2060 µg/mL.

As to “NGLEGLK [literature antioxidant peptide from giant squid]”, the “EC50 O2^−·” value in series [1] is 420 µg/mL.

Consider “IELFPGLP [literature antioxidant peptide from Siberian sturgeon cartilages]”, for which the “EC50 DPPH·” value in series [3] is 1380 µg/mL. Moreover, the “EC50 HO·” value in series [2] was 1630 µg/mL.

On to “GHHAAA [literature antioxidant peptide from tuna milts]”, for which the “EC50 ABTS^+·” value in series [4] was 1120 µg/mL.

In the case of “YSKT [literature antioxidant peptide from Eucheuma cottonii]”, the “EC50 DPPH·” value in series [3] was 1710 µg/mL.

Consider “YGPM [literature antioxidant peptide from Scomberomorous niphonius skins]”, for which the “EC50 ABTS^+·” value in series [4] is 820 µg/mL. Besides, the “EC50 O2^−·” value in series [1] is 730 µg/mL.

Turning to “QDHKA [literature antioxidant peptide from tuna milts]”, in series [2], the “EC50 HO·” value is 536 µg/mL.

As to “QAEP [literature antioxidant peptide from tuna roes]”, the “EC50 O2^−·” value in series [1] was 2916 µg/mL.

For the substance “PYGAKG [literature antioxidant peptide from S. niphonius skins]”, the “EC50 O2^−·” value in series [1] was 800 µg/mL.

Consider “NADFGLNGLEGLA [literature antioxidant peptide from giant squid]”, for which the “EC50 HO·” value in series [2] is 612 µg/mL.

Turning to “YAVT [literature antioxidant peptide from Eucheuma cottonii]”, the “EC50 O2^−·” value in series [1] was 560 µg/mL.

As to “GFIGPTE [literature antioxidant peptide from redlip croaker scales]”, in series [3], the “EC50 DPPH·” value is 450 µg/mL. Besides, the “EC50 O2^−·” value in series [1] was 740 µg/mL.

As for “FYKA [literature antioxidant peptide from Eucheuma cottonii]”, in series [3], the “EC50 DPPH·” value was 2560 µg/mL. The “EC50 O2^−·” value in series [1] was 1910 µg/mL.

As to “EGPFGPEG [literature antioxidant peptide from redlip croaker scales]”, the “EC50 DPPH·” value in series [3] is 370 µg/mL. The “EC50 O2^−·” value in series [1] was 470 µg/mL.

Turning to “SVTEV [literature antioxidant peptide from tuna milts]”, the “EC50 DPPH·” value in series [3] was 890 µg/mL. The “EC50 ABTS^+·” value in series [4] was 1020 µg/mL.

On to “WLDPDG [literature antioxidant peptide from T. granosa]”, for which the “EC50 HO·” value in series [2] was 1540 µg/mL.

On to “LKQELEDLLEKQE [literature antioxidant peptide from Pacific oyster]”, for which the “EC50 HO·” value in series [2] was 46 µg/mL.

“EYEA [literature antioxidant peptide from Antarctic krill]”: in series [2], the “EC50 HO·” value is 946 µg/mL. Besides, the “EC50 O2^−·” value in series [1] is 793 µg/mL.

“YPPAK [literature antioxidant peptide from Mytilus edulis]”: the “EC50 DPPH·” value in series [3] is 2620 µg/mL. The “EC50 HO·” value in series [2] is 228 µg/mL. The “EC50 O2^−·” value in series [1] is 72 µg/mL.

“VPDDD [literature antioxidant peptide from Miichthys miiuy swim bladders]”: the “EC50 O2^−·” value in series [1] was 4110 µg/mL.

As to “WPPD [literature antioxidant peptide from blood cockle (T. granosa)]”, the “EC50 DPPH·” value in series [3] is 360 µg/mL. Further, in series [2], the “EC50 HO·” value was 380 µg/mL. Further, the “EC50 ABTS^+·” value in series [4] was 540 µg/mL. Moreover, in series [1], the “EC50 O2^−·” value was 460 µg/mL.

As to “GPEGPMGLE [literature antioxidant peptide from redlip croaker scales]”, the “EC50 DPPH·” value in series [3] is 590 µg/mL. Moreover, in series [2], the “EC50 HO·” value was 450 µg/mL. Moreover, in series [1], the “EC50 O2^−·” value was 620 µg/mL.

Take “GVPLT [literature antioxidant peptide from Navodon septentrionalis heads]”: the “EC50 ABTS^+·” value in series [4] is 3124 µg/mL.

In the case of “PSYV [literature antioxidant peptide from pond loach meat]”, in series [3], the “EC50 DPPH·” value is 2640 µg/mL. In series [2], the “EC50 HO·” value is 2640 µg/mL.

“TTANIEDRR [literature antioxidant peptide from salmon pectoral fin]”: in series [3], the “EC50 DPPH·” value was 2500 µg/mL.

In the case of “SLPY [literature antioxidant peptide from Antarctic krill]”, the “EC50 HO·” value in series [2] was 826 µg/mL.

As for “VRDQY [literature antioxidant peptide from tuna milts]”, in series [3], the “EC50 DPPH·” value is 880 µg/mL. The “EC50 ABTS^+·” value in series [4] is 1040 µg/mL.

In the case of “GFYAA [literature antioxidant peptide from Miichthys miiuy swim bladders]”, the “EC50 O2^−·” value in series [1] was 3030 µg/mL.

With “EPLSD [literature antioxidant peptide from blood cockle]”, the “EC50 O2^−·” value in series [1] is 2040 µg/mL.
